Source: patent EP4592286A1, “MACROCYCLIC NITROGEN-CONTAINING CROWN ETHER COMPOUND AND USE THEREOF AS PROTEIN KINASE INHIBITOR” (Artivila Biopharma, priority 2022, dated 2024)
In brackets after ≈: the same amount, converted by molar mass.

Experiments:
[1] = measurement of the solubility of compounds in water and diluted hydrochloric acid; assay type: physicochemical; settings: thermodynamic from solid; for solubility at 1 h: simulated gastric fluid, diluted hydrochloric acid solution A (pH-1.5), room temperature; for solubility: ultrapure water (pH-6), room temperature overnight
Method: Example 117: measurement of the solubility of compounds in water and diluted hydrochloric acid
The compounds were dissolved in acetonitrile (LCMS pure) and prepared into standard samples having the concentration gradient of 1000 µg/mL, 500 µg/mL, 250 µg/mL, 125 µg/mL, 62.5 µg/mL, and 31.25 µg/mL.
(§1) About 1.0 mg of the powder of the compound to be tested was weighed and added to 0.3 mL of ultrapure water (pH-6), the resulting mixture was shaked thoroughly at room temperature overnight and centrifuged, and the supernatant was taken and diluted 10 times with acetonitrile. The sample was analyzed after mixing evenly.
as §1, with “153.8 µL of 6 M HCl was pipetted, 20 mL of water was added, and mixed evenly to prepare diluted hydrochloric acid solution A (pH-1.5). About” for “About”, “diluted hydrochloric acid solution A,” for “ultrapure water (pH-6),”, “for 1 hour” for “overnight”
The standard sample and the sample to be tested were analyzed by Shimadzu LCMS-2020, where chromatographic column was Skim-psck GIST 5 µm C18 2.1*[…]; mobile phase A was water and mobile phase B was methanol; and flow rate was 0.3 mL/min. The gradient of B was as the following: 0 min: 10%; 0-1.0 min: 10%; 1.0-2.5 min: 95%; 3.0-4.0 min: 95%; 4.0-4.1 min: 10%; 4.1-6.0 min: 10%.
The relationship between the concentration and peak area of the standard sample was ploted into a standard curve, and the concentration of the sample to be tested was calibrated using this standard curve. Compound solubility = concentration of the sample to be tested × 10 [formula]

LRRK2 [2] = target: T1, LRRK2 (Homo sapiens, UniProt Q5S007); experiment: experiment of inhibiting LRRK2 kinase activity (ADP-Glo method); assay type: biochemical; settings: Table 4
T1 sequence (Q5S007 whole entry): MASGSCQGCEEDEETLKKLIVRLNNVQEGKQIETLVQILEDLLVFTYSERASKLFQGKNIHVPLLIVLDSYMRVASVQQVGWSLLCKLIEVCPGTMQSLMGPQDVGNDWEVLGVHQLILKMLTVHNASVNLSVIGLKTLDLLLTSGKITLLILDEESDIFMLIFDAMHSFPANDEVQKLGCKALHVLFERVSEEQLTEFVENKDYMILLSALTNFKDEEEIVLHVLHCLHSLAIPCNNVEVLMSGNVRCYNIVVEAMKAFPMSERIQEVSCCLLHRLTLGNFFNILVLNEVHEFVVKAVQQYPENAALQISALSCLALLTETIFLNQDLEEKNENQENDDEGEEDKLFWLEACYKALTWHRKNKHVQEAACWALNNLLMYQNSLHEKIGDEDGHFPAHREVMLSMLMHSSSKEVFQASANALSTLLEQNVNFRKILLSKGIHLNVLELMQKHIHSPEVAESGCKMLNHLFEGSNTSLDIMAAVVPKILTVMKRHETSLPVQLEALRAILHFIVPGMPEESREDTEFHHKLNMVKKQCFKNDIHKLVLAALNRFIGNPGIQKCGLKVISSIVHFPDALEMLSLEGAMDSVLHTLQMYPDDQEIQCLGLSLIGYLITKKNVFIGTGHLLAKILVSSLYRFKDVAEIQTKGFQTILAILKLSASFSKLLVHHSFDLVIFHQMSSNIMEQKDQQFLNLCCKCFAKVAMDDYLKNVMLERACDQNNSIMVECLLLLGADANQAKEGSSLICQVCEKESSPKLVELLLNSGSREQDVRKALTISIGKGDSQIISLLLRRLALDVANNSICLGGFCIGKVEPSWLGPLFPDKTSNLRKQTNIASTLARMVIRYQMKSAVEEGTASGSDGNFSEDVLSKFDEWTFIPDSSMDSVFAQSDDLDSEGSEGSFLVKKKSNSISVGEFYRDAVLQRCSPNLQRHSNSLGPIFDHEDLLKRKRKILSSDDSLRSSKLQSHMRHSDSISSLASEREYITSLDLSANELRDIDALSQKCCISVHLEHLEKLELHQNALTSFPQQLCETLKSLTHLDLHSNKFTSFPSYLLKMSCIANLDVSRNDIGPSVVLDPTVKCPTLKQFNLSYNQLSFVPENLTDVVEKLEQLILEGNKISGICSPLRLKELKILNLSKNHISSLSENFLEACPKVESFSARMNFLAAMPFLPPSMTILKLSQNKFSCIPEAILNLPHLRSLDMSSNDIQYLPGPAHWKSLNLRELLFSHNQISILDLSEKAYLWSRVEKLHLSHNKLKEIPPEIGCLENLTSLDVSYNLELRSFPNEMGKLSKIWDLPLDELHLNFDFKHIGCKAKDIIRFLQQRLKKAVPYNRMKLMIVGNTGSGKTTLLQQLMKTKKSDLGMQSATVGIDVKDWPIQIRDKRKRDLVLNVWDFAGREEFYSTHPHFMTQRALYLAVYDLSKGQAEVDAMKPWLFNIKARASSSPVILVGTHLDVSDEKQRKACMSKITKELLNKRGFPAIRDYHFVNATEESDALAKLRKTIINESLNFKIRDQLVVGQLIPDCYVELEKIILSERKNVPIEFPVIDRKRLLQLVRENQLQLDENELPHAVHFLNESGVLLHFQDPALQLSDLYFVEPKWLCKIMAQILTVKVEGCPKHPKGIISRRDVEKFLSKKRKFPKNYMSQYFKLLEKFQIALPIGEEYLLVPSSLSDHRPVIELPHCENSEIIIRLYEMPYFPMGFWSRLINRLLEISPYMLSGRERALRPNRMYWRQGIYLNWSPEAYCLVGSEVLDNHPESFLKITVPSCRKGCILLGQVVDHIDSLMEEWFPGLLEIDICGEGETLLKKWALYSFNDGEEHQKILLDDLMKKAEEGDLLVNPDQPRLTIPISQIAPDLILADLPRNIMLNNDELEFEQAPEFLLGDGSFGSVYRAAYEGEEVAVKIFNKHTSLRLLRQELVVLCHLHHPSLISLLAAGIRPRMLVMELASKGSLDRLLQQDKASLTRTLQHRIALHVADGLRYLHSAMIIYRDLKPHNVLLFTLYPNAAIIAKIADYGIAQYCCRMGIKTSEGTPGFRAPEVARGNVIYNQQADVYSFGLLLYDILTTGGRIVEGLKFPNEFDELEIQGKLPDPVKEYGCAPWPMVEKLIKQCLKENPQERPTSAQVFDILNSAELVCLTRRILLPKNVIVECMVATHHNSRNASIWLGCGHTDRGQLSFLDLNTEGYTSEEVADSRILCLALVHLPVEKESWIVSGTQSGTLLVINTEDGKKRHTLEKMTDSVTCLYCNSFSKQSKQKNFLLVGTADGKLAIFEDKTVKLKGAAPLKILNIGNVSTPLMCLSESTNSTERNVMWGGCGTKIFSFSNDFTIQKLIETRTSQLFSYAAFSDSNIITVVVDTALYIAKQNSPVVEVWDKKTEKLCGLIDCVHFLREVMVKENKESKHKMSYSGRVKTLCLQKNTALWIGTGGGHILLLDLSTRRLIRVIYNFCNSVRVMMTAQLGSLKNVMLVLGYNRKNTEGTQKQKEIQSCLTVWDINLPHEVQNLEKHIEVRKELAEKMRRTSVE
Method: The inhibitory effect of the compounds on the activity of LRRK2 kinase was detected by ADP-Glo method. The diluted solutions of the compounds were transfered to a 384-well plate (784075, Greiner), the plate was sealed and centrifuged at a speed of 1000 g for 1 minute. A kinase solution at 2-fold final concentration was prepared with 1×kinase buffer, 2.5 µl of the kinase solution with 2-fold final concentration was added to the wells, the plate was centrifuged at 1000 g for 30 seconds, and left at room temperature for 10 minutes. A mixed solution of ATP and kinase substrate at 2-fold final concentration was prepared with 1×kinase buffer, and 2.5 µL of mixed solution of ATP and substrate at 2-fold final concentration was added to start the reaction. The plate was centrifuged at 1000 g for 30 seconds, sealed and left at room temperature for 2 hours. 4 µL of ADP-Glo reagent was added and incubated at room temperature for 40 minutes; 8 µL kinase detection reagent was added and incubated at room temperature for another 40 minutes. The luminescence signal value was detected on Envision 2104 microplate reader. The conversion inhibition rate%=100-(compound signal value-positive control signal value)/(blank control signal value-positive control signal value)×100.
The IC50 was calculated with GraphPad 6.0 and the dose-responsive curve of the compounds was plotted as follows: y=Bottom+(Top-Bottom)/(1+10^((logic50-x)×hillslope)), where x was logarithm of inhibitor concentration; and y was % inhibition rate.

[3] = target: T2, endogenous phosphorylated LRRK2 (S935) (Homo sapiens, UniProt Q5S007); experiment: detection of endogenous phosphorylated LRRK2 (S935) in A549 cells (Western blot); assay type: cell-based; settings: at 2 µM, LRRK2 (S935) activity in A549 cells, 15 hours; read-out: Inhibition rate
T2 construct: Detection of endogenous phosphorylated LRRK2 (S935) in A549 cells; endogenous in cells; host or cells: A549
T2 sequence (Q5S007 whole entry): as above
Method: Detection of endogenous phosphorylated LRRK2 (S935) in A549 cells
A549 cells were resuspended in serum-free 1640 medium at a density of 1×10^6 cells/ml, and inoculated into a 6-well plate at 1 ml/well, and cultured at 37°C and 5% CO2 for 6-8 hours. 1 microliter of compound solution in DMSO or DMSO (volume ratio of 0.1%) was added, mixed evenly, and cultivated at 37°C and 5% CO2 for 15 hours. Cells were collected, 50 microliters of RIPA III lysis solution were added to each sample to lyse cells on ice for 15 minutes, centrifuged at 4°C and 13000 rpm for 30 minutes, the supernatant was collected, the protein concentration of cell lysis solution was measured by BCA, and the protein concentrations of all samples were normalized. 5×sample loading buffer were added and kept at 95°C for 10 minutes. The content of phosphorylated S935 of endogenous LRRK2 was detected by Western blot, using antibody against phosphorylated LRRK2 (S935) (Abcam#133450). The signal intensity of phosphorylated LRRK2 (S935) was counted by Image J, the signal of phosphorylated LRRK2 (S935) in a sample was normalized by β-actin, and the data was analyzed.

JAK2 = JAK2 (Homo sapiens, UniProt O60674); experiment: experiment of inhibiting kinase activity (Caliper mobility shift assay), JAK2; assay type: biochemical; settings: read-out: inhibition rate JAK2; for inhibition at 0.01 µM: at 10 nM
Chain of JAK2 (O60674 whole entry): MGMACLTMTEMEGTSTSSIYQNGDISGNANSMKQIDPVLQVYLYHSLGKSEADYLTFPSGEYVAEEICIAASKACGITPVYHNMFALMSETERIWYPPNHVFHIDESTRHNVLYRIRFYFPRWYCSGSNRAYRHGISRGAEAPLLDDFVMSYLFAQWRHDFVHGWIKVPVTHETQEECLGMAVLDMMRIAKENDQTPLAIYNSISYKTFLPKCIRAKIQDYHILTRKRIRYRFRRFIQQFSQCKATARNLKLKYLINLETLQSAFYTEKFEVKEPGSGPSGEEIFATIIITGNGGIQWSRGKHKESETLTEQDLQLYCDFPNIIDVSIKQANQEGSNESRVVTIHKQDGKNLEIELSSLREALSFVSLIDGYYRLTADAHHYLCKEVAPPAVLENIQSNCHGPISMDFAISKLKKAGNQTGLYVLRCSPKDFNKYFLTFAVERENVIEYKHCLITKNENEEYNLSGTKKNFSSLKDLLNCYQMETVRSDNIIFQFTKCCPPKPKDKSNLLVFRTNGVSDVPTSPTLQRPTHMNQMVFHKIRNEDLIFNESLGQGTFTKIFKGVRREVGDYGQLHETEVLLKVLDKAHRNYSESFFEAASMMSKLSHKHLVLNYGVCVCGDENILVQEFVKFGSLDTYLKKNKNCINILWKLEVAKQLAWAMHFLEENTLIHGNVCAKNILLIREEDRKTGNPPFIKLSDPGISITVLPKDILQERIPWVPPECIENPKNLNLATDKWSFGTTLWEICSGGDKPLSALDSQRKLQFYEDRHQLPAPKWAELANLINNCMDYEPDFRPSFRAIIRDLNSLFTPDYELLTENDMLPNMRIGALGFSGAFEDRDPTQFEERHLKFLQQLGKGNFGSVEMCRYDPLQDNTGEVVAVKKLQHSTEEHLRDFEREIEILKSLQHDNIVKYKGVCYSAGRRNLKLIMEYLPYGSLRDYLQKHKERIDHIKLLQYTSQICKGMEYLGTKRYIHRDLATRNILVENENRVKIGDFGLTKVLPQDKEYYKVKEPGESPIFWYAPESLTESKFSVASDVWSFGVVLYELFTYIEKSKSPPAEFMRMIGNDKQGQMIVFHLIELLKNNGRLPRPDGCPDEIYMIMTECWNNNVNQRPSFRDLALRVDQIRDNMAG
How it was run: (§2)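 Kinase preincubated 10 min at room temperature with compound, then reaction started with ATP plus substrate; substrate conversion read by Caliper mobility shift after stop solution. Compounds tested at 10 and 100 nM or as 10-point 3-fold dilutions from 10 µM; IC50 from variable-slope fit of % inhibition.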

CDK9 = CDK9 (Homo sapiens, UniProt P50750); experiment: experiment of inhibiting kinase activity (Caliper mobility shift assay), CDK9; assay type: biochemical; settings: at 100 nM; read-out: inhibition rate CDK9
Method: (§3) The inhibition rates of tested compounds on JAK1, JAK2, JAK3, TYK2, CDK7, CDK9, EGFR (T790M) and LRRK2 kinases were measured. The test concentrations of the compounds were 10 nM and 100 nM, and the detection was performed by replicate wells. Alternatively, compounds were 3-fold serial diluted from 10 µM for 10 concentrations in replicate wells.
The inhibitory effects of the compounds on JAK1, JAK2, JAK3, CDK7 and CDK9 kinases were detected by the method of Caliper mobility shift assay. 250 nL of the compound at 100-fold final concentration was transferred to a destination plate 384-well-plate by using a liquid handler Echo 550. A kinase solution at 2.5-fold final concentration was prepared with 1×kinase buffer. 10 µL of the kinase solution with 2.5-fold final concentration was added to compound wells and positive control wells; and 10 µL of 1×kinase buffer was added to negative control wells. The mixture was centrifuged at 1000 rpm for 30 seconds and then incubated at room temperature for 10 minutes. A mixed solution of ATP and kinase substrate at 5/3-fold final concentration was prepared with 1×kinase buffer, and 15 µL of the mixed solution of ATP and substrate at 5/3-fold final concentration was added to start the reaction. The 384-well plate was centrifuged at 1000 rpm for 30 seconds, shaked and mixed evenly, then incubated at room temperature for a corresponding time. 30 µL of stop solution was added to stop the kinase reaction, the mixture was centrifuged at 1000 rpm for 30 seconds, and shaked and mixed evenly. The conversion rate was read by Caliper EZ Reader. The conversion inhibition rate%=(average positive control conversion rate%-sample conversion rate%)/(average positive control conversion rate%-average negative control conversion rate%). Where negative control wells represent the conversion readings of the background well of kinase buffer; and positive control wells represent the conversion readings of wells without compound inhibition. With the log value of concentration as the x axis and the percentage inhibition rate as the y axis, the dose-response curve was fitted by the log (inhibitor) vs. response-variable slope of the analyzing softwar GraphPad Prism 5, and the IC50 values of each compound on enzyme activity were obtained. Calculation formula is as follows: y=Bottom+(Top-Bottom)/(1+10^((LogIC50-x)×hillslope)), where x is logarithm of inhibitor concentration; and Y is % inhibition rate.

CDK7 = CDK7 (Homo sapiens, UniProt P50613); experiment: experiment of inhibiting kinase activity (Caliper mobility shift assay), CDK7; assay type: biochemical; settings: read-out: inhibition rate CDK7
How it was run: as §2

JAK3 = target: T3, JAK3 (Homo sapiens, UniProt P52333); experiment: experiment of inhibiting kinase activity (Caliper mobility shift assay), JAK3; assay type: biochemical; settings: read-out: inhibition rate JAK3; for inhibition at 0.01 µM: at 10 nM
T3 sequence (P52333 1-1124): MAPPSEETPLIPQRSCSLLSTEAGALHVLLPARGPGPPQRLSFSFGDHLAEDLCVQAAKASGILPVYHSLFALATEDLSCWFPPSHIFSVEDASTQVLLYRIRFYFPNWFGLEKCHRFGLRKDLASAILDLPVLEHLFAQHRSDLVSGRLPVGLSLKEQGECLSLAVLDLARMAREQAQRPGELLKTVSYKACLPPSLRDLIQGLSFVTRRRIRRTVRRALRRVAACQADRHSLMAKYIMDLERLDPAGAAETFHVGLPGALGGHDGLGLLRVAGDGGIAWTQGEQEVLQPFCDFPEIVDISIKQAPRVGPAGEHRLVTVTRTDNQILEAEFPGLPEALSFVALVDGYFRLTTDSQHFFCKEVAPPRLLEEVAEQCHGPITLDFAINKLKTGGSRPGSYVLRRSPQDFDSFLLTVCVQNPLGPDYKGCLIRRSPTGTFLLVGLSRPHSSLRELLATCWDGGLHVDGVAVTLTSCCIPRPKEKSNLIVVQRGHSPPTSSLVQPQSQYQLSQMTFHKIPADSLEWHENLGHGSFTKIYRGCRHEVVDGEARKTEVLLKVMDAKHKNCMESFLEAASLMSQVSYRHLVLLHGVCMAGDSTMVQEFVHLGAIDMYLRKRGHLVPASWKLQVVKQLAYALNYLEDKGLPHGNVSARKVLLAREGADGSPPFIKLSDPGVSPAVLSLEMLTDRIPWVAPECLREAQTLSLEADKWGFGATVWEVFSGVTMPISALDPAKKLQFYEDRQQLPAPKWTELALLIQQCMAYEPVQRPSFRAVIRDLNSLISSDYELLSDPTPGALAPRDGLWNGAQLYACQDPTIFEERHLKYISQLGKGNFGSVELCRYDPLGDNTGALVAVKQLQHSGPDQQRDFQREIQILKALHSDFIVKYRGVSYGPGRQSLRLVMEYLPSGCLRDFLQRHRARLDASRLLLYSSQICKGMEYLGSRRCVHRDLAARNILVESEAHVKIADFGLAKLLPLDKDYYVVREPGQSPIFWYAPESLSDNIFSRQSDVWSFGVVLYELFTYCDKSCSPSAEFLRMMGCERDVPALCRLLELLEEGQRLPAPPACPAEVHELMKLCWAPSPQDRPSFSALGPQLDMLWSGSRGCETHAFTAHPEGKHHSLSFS
How it was run: as §2

LRRK2 [4] = target: T1, LRRK2; experiment: experiment of inhibiting kinase activity, LRRK2; assay type: biochemical; settings: read-out: inhibition rate LRRK2; for inhibition at 0.01 µM: at 10 nM
Method: as §3

JAK1 = JAK1 (Homo sapiens, UniProt P23458); experiment: experiment of inhibiting kinase activity (Caliper mobility shift assay), JAK1; assay type: biochemical; settings: read-out: inhibition rate JAK1
Chain of JAK1 (P23458 whole entry): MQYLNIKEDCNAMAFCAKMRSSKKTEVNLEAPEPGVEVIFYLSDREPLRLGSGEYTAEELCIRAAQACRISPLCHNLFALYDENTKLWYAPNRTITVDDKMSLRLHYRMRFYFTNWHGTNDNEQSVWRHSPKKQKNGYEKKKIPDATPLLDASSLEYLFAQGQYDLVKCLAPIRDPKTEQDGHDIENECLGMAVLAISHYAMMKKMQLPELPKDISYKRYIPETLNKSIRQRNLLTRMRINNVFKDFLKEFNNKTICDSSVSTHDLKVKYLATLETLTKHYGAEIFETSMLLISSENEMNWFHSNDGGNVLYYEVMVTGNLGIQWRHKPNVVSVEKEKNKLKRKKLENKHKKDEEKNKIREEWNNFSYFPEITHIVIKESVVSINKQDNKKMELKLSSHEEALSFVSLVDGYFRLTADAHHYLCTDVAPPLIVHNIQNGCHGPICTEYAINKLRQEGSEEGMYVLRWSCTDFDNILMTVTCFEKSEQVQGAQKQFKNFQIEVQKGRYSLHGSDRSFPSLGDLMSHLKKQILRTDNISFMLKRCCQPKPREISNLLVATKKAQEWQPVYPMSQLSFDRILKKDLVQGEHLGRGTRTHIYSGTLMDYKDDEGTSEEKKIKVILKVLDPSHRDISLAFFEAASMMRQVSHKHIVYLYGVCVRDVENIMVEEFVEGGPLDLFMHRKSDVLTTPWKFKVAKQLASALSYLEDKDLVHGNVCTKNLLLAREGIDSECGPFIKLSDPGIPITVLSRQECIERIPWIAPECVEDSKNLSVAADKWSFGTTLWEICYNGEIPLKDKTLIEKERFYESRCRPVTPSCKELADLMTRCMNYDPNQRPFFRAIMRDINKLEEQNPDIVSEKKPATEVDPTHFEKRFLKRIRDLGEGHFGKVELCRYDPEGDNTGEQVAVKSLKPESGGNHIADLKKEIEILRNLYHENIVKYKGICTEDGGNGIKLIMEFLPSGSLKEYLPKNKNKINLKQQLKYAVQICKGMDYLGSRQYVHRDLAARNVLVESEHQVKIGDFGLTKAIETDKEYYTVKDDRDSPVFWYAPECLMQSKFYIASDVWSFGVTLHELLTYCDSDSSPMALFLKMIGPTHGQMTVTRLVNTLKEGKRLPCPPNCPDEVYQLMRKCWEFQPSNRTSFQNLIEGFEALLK
How it was run: as §2

TYK2 = TYK2 (Homo sapiens, UniProt P29597); experiment: experiment of inhibiting kinase activity, TYK2; assay type: biochemical; settings: read-out: inhibition rate TYK2
Method: as §3

Row | SMILES | solubility at 1 h [1] [µg/mL] | solubility [1] [µg/mL] | IC50 (LRRK2 [2]) [nM] | inhibition at 2 µM [3] [%] | inhibition at 0.01 µM (JAK2) [%] | inhibition at 0.1 µM (JAK2; at 100 nM) [%] | inhibition at 0.1 µM (CDK9) [%] | inhibition at 0.01 µM (CDK7; at 10 nM) [%] | inhibition at 0.1 µM (CDK7; at 100 nM) [%] | inhibition at 0.01 µM (JAK3) [%] | inhibition at 0.1 µM (JAK3; at 100 nM) [%] | inhibition at 0.01 µM (LRRK2 [4]) [%] | inhibition at 0.1 µM (LRRK2 [4]; at 100 nM) [%] | inhibition at 0.1 µM (JAK1; at 100 nM) [%] | inhibition at 0.1 µM (TYK2; at 100 nM) [%] | inhibition at 0.01 µM (JAK1; at 10 nM) [%] | inhibition at 0.01 µM (TYK2; at 10 nM) [%]
1 | CN1CCOc2ccc(Nc3ncc(C(F)(F)F)c(NCCP(C)(C)=O)n3)cc2OCC1 [Example 86, dimethyl(2-((2-((4-methyl-3,4,5,6-tetrahydro-2H-benzo[b][1,4,7]dioxazolin-9-yl)amino)-5-(trifluoromethyl)pyrimidin-4-yl)amino)ethyl)phosphine oxide] | > 3830 | 688 (≈ 1450 µM) | < 100 |  |  |  |  |  |  |  |  |  |  |  |  |  | 
2 | CN1CCOCCOc2ccc(Nc3ncc(C(F)(F)F)c(O[C@H]4CC[C@@](C)(O)CC4)n3)cc2OCC1 [Example 7, (1s,4s)-1-methyl-4-((2-((7-methyl-2,3,6,7,8,9-hexahydro-5H-benzo[b][1,4,7]trioxa[10]azacyclododecan-12-yl)amino)-5-(trifluoromethyl)pyrimidin-4-yl)oxy)cyclohexan-1-ol] | > 3770 | 680 (≈ 1290 µM) | < 100 | > 80 |  |  |  |  |  |  |  |  |  |  |  |  | 
3 | CC(C)S(=O)(=O)c1ccccc1Nc1nc(Nc2ccc3c(c2)OCCOCCNCCO3)nc2[nH]ccc12 [Example 97, N^2-(2,3,6,7,8,9-hexahydro-5H-benzo[b][1,4,7]trioxa[10]azacyclododecan-13-yl)-N^4-(2-(isopropylsulfonyl)phenyl)-7H-pyrrolo[2,3-d]pyrimidin-2,4-diamine] | > 4330 | 180 (≈ 326 µM) |  |  | > 80 | > 80 | 40 to 79 | 40 to 79 | > 80 | 40 to 79 | > 80 | > 80 | > 80 | 40 to 79 | 40 to 79 |  | 
4 | CN1CCOCCOc2cc(Nc3nc(-c4cnn([C@@H](CC#N)C5CCCC5)c4)c4cc[nH]c4n3)ccc2OCC1 [Example 75, (S)-3-cyclopentyl-3-(4-(2-((7-methyl-2,3,6,7,8,9-hexahydro-5H-benzo[b][1,4,7]trioxa[10]azacyclododecan-13-yl)amino)-7H-pyrrolo[2,3-d]pyrimidin-4-yl)-1H-pyrazol-1-yl) propionitrile] | > 3500 | 120 (≈ 216 µM) |  |  | > 80 |  |  |  |  | > 80 |  | > 80 |  |  |  | > 80 | > 80
